Our source for the Activity and IC50 values is ChEMBL document CHEMBL1148675, “Protein microarrays to study carbohydrate-recognition events” (Bioorg Med Chem Lett, 2006).

The structures appear in SMILES notation. Calls of active or inactive are those of the source. The rule behind the calls is not given here.

Experiment [1] has as its target Antithrombin-III (Homo sapiens) (UniProt P01008). Description: Binding affinity to antithrombin by microarray at 0.5 uM.
Experiment [2] concerns the target Streptavidin (Streptomyces avidinii) (UniProt P22629). Put plainly: Binding affinity to streptavidin by microarray.
Experiment [3] has as its target T1, Ovalbumin (Gallus gallus) (UniProt P01012).
T1 sequence (whole entry): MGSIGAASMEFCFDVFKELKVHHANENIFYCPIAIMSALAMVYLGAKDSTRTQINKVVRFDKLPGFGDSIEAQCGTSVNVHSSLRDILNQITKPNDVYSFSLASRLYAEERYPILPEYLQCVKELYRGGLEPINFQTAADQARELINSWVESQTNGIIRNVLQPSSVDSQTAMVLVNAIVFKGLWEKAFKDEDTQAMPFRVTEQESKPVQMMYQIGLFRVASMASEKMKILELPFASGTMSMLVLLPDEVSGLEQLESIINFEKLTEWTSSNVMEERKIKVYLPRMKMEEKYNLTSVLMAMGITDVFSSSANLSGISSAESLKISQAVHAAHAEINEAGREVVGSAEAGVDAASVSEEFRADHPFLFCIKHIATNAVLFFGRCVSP
Description: Binding affinity to ovalbumin by microarray at 0.5 uM.

Experiment [4] deals with Triticum aestivum. Put plainly: Binding affinity to wheat germ agglutinin by microarray at 0.5 uM.
For experiment [5], the species on record is Homo sapiens. Put plainly: Binding affinity to alkaline phosphatase by microarray at 0.5 uM.
The species entered for experiment [6] is Homo sapiens. Description: Binding affinity to hyaluronidase by microarray at 0.5 uM.
The target of experiment [7] is Trypsin (Homo sapiens) (UniProt P07477+P07478+P35030). Put plainly: Binding affinity to trypsin by microarray at 0.5 uM. The class given is protein assay.
For experiment [8], the species on record is Homo sapiens. Description: Binding affinity to RNase A by microarray at 0.5 uM.
For experiment [9], the species on record is Homo sapiens. Put plainly: Binding affinity to myokinase by microarray at 0.5 uM.
For experiment [10], the system named is Aleuria aurantia. Description: Binding affinity to Aleuria Aurantia lectin by microarray at 0.5 uM.
Experiment [11] concerns Canavalia. Description: Binding affinity to Concanavalin A by microarray at 0.5 uM.
Experiment [12] has as its system Sambucus nigra. Put plainly: Binding affinity to Sambucus nigra A lectin by microarray at 0.5 uM.
The target of experiment [13] is Prothrombin (Homo sapiens) (UniProt P00734). Put plainly: Binding affinity to thrombin by microarray at 0.5 uM.
The species entered for experiment [14] is Homo sapiens. Description: Binding affinity to pepsin by microarray at 0.5 uM.
Experiment [15] is filed under the species Homo sapiens. Put plainly: Binding affinity to amylase by microarray at 0.5 uM.
For experiment [16], the target named is Insulin (Homo sapiens) (UniProt P01308). Description: Binding affinity to insulin by microarray at 0.5 uM.
Sequence of Insulin (Homo sapiens) (P01308 whole entry): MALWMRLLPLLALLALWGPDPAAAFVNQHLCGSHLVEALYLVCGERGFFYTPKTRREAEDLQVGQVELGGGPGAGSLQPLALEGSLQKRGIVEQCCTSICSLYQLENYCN
The species named for experiment [17] is Homo sapiens. Put plainly: Binding affinity to GST by microarray at 0.5 uM.
Experiment [18] is filed under the species Homo sapiens. Description: Binding affinity to collagenase by microarray at 0.5 uM.
A short description of experiment [19]: Inhibition of trivalent GlcNAc binding to wheat germ agglutinin with irradiation by microarray. Set-up: species or system Triticum aestivum.
Experiment [20] can be described thus: Inhibition of trivalent GlcNAc binding to wheat germ agglutinin without irradiation by microarray. On the set-up: species or system Triticum aestivum.
In experiment [21] the test system is Ricinus communis. Description: Binding affinity to Ricinus communis agglutinin 120 by microarray at 0.5 uM.

Sequence of Streptavidin (Streptomyces avidinii) (P22629 whole entry): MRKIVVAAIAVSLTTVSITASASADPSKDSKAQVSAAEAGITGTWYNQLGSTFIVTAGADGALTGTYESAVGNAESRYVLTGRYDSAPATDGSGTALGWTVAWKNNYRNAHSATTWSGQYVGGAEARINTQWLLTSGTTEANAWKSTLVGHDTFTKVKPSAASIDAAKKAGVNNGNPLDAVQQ
Sequence of Antithrombin-III (Homo sapiens) (P01008 whole entry): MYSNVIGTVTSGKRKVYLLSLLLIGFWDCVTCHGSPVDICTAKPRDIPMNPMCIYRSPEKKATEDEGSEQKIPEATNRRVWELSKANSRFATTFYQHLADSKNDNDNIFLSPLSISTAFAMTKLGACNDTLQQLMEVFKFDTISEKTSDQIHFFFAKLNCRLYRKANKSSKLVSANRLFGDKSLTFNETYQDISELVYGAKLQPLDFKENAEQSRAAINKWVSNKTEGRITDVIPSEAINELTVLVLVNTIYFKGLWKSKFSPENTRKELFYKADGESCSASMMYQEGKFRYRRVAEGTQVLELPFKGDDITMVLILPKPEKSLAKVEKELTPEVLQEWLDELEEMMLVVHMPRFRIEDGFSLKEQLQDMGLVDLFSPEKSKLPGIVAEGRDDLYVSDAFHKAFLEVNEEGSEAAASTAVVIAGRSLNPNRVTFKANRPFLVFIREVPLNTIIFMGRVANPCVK

Regarding `C[C@H]1O[C@H](OCCNC(=O)CCC(=O)NCCCC[C@H](NC(=O)CCC(=O)NCCO[C@H]2O[C@H](C)[C@H](O)[C@H](O)[C@H]2O)C(=O)N[C@@H](CCCCNC(=O)[C@H](COCc2ccc(C(=O)c3ccccc3)cc2)NC(=O)CCC(=O)NCCO[C@H]2O[C@H](C)[C@H](O)[C@H](O)[C@H]2O)C(=O)NCCCOCCOCCOCCCNC(=O)CCC(=O)NCCOCCOCCNC(=O)CCCCN2CCC(C)(C)/C2=C\C=C\C2=[N+](C)c3ccccc3C2(C)C)[C@H](O)[C@@H](O)[C@H]1O`, the result in experiment [1], in experiment [2], in experiment [3], in experiment [4], in experiment [5] and in experiment [6] was inactive. The result in experiment [7], in experiment [8], in [9], in experiment [11], in experiment [12] and in experiment [13] was inactive. The result in experiment [14], in experiment [15], in experiment [16], in experiment [17] and in [18] was inactive. Besides, the result in experiment [10] was Active.
Usually IC50 stands for the midpoint of a concentration-inhibition curve. In the case of `CC(=O)N[C@H]1[C@H](OCCNC(=O)CCC(=O)NCCCC[C@H](NC(=O)CCC(=O)NCCO[C@@H]2O[C@H](CO)[C@@H](O)[C@H](O)[C@H]2NC(C)=O)C(=O)N[C@@H](CCCCNC(=O)[C@H](COCc2ccc(C(=O)c3ccccc3)cc2)NC(=O)CCC(=O)NCCO[C@@H]2O[C@H](CO)[C@@H](O)[C@H](O)[C@H]2NC(C)=O)C(=O)NCCCOCCOCCOCCCNC(=O)CCC(=O)NCCOCCOCCNC(=O)CCCCN2CCC(C)(C)/C2=C\C=C\C2=[N+](C)c3ccccc3C2(C)C)O[C@H](CO)[C@@H](O)[C@@H]1O`, the result in [1], in experiment [2], in experiment [3], in experiment [5], in [6] and in [7] was inactive. In addition, the outcome in experiment [8], in experiment [9], in experiment [10], in [11], in experiment [12] and in experiment [13] was inactive. In addition, the outcome in [14], in experiment [15], in experiment [16], in experiment [17] and in experiment [18] was inactive. Further, in experiment [4], the result was Active. Also, the results for the IC50 in experiment [19] and in [20] were 17 mM and 7.9 mM, respectively.
In the case of `CC(=O)N[C@H]1[C@@H](OCCNC(=O)CCC(=O)NCCCC[C@H](NC(=O)CCC(=O)NCCO[C@H]2O[C@H](CO)[C@@H](O[C@@H]3O[C@H](CO)[C@H](O)[C@H](O)[C@H]3O)[C@H](O)[C@H]2NC(C)=O)C(=O)N[C@@H](CCCCNC(=O)[C@H](COCc2ccc(C(=O)c3ccccc3)cc2)NC(=O)CCC(=O)NCCO[C@H]2O[C@H](CO)[C@@H](O[C@@H]3O[C@H](CO)[C@H](O)[C@H](O)[C@H]3O)[C@H](O)[C@H]2NC(C)=O)C(=O)NCCCOCCOCCOCCCNC(=O)CCC(=O)NCCOCCOCCNC(=O)CCCCN2CCC(C)(C)/C2=C\C=C\C2=[N+](C)c3ccccc3C2(C)C)O[C@H](CO)[C@@H](O[C@@H]2O[C@H](CO)[C@H](O)[C@H](O)[C@H]2O)[C@@H]1O`, the result in experiment [1], in experiment [2], in experiment [3], in experiment [5], in experiment [6] and in experiment [7] was inactive. The result in [8], in experiment [9], in experiment [10], in experiment [11], in experiment [12] and in experiment [13] was inactive. Further, the result in [14], in experiment [15], in experiment [16], in [17] and in experiment [18] was inactive. Besides, the outcome in experiment [4] and in [21] was Active.
